Data from patent US6699836B2 (priority 1999, dated 2004).
Values after ≈ are worked out from the molar mass of the structure shown. Like-named read-outs stand apart in the source and are kept apart here.

Legend:
Assay in all cases: MIC determination in BHI broth microdilution
Assay type in all cases: cell-based
E. faecium CL4931 = system: E. faecium CL4931
Procedure: (§1) The MICs of the test compounds were determined using bacteria grown in brain heart infusion media (BHI) supplemented with 0.1% casamino acids. Logarithmically growing cells were diluted to approximately 5×10^5 CFU/ml and subjected to test compounds solubilized and serially diluted with DMSO. […] After 18 hours at 37° C., the OD600 was determined by reading the ninety-six well microtiter plates on a microplate reader. For a given concentration, an MIC determination was made if: […]

E. faecalis ATCC 29212 = system: E. faecalis ATCC 29212
Procedure: as §1

S. aureus ATCC29213 = system: S. aureus ATCC29213
Procedure: as §1

E. faecium ATCC 49624 = system: E. faecium ATCC 49624
Procedure: as §1

E. faecalis CL4877 = system: E. faecalis CL4877
Procedure: as §1

S. aureus ATCC 33591 = system: S. aureus ATCC 33591
Procedure: (§2) In the Table below, MIC (minimum inhibitory concentration) values of certain compounds of the present invention are provided for the bacterial strains E. faecalis ATCC 29212; E. faecalis CL4877; E. faecium ATCC 49624; E. faecium CL4931; S. aures ATCC 29213; S. aureus ATCC 33591; and E. coli BAS 849. The MICs of the test compounds were determined using bacteria grown in brain heart infusion media (BHI) supplemented with 0.1% casamino acids. Logarithmically growing cells were diluted to approximately 5×10^5 CFU/ml and subjected to test compounds solubilized and serially diluted with DMSO. A 5% final DMSO concentration had no effect on cell viability or killing. After 18 hours at 37° C., the OD600 was determined by reading the ninety-six well microtiter plates on a microplate reader. For a given concentration, an MIC determination was made if: […]

E. coli BAS 849 = settings: E. coli BAS849; BHI with 0.1% casamino acids, 18 hours at 37° C., OD600 ≧90% inhibition
Procedure: as §2

[1] = E. faecium CL4931, BHI with 0.1% casamino acids, 18 hours at 37° C., OD600 ≧90% inhibition
[2] = E. faecalis ATCC29212, BHI with 0.1% casamino acids, 18 hours at 37° C., OD600 ≧90% inhibition
[3] = S. aureus ATCC29213, BHI with 0.1% casamino acids, 18 hours at 37° C., OD600 ≧90% inhibition
[4] = E. faecium ATCC49624, BHI with 0.1% casamino acids, 18 hours at 37° C., OD600 ≧90% inhibition
[5] = E. faecalis CL4877, BHI with 0.1% casamino acids, 18 hours at 37° C., OD600 ≧90% inhibition
[6] = S. aureus ATCC33591, BHI with 0.1% casamino acids, 18 hours at 37° C., OD600 ≧90% inhibition
[7] = Enterococcus faecium, CL4931, 18 h, read-out: MIC
[8] = Enterococcus faecalis, ATCC29212, 18 h, read-out: MIC
[9] = Staphylococcus aureus, ATCC29213, 18 h, read-out: MIC
[10] = Enterococcus faecium, ATCC49624, 18 h, read-out: MIC
[11] = Enterococcus faecalis, CL4877, 18 h, read-out: MIC
[12] = Staphylococcus aureus, ATCC33591, 18 h
[13] = Enterococcus faecium, CL4931, 18 h
[14] = Enterococcus faecalis, ATCC29212, 18 h
[15] = Staphylococcus aureus, ATCC29213, 18 h
[16] = Enterococcus faecium, ATCC49624, 18 h
[17] = Enterococcus faecalis, CL4877, 18 h

Compound	MIC (E. faecium CL4931; [1]) [µg/mL]	MIC (E. faecalis ATCC 29212; [2]) [µg/mL]	MIC (S. aureus ATCC29213; [3]) [µg/mL]	MIC (E. faecium ATCC 49624; [4]) [µg/mL]	MIC (E. faecalis CL4877; [5]) [µg/mL]	MIC (S. aureus ATCC 33591; [6]) [µg/mL]	MIC (E. coli BAS 849) [µg/mL]	MIC (E. faecium CL4931; [7]) [µg/mL]	MIC (E. faecalis ATCC 29212; [8]) [µg/mL]	MIC (S. aureus ATCC29213; [9]) [µg/mL]	MIC (E. faecium ATCC 49624; [10]) [µg/mL]	MIC (E. faecalis CL4877; [11]) [µg/mL]	MIC (S. aureus ATCC 33591; [12]) [µg/mL]	MIC (E. faecium CL4931; [13]) [µg/mL]	MIC (E. faecalis ATCC 29212; [14]) [µg/mL]	MIC (S. aureus ATCC29213; [15]) [µg/mL]	MIC (E. faecium ATCC 49624; [16]) [µg/mL]	MIC (E. faecalis CL4877; [17]) [µg/mL]
6′-amino-3,4- dichloro- benzyloxylben zyl- vancomycin putrescine amide [TS0216]	6.25	1.56	3.12	3.12	3.12	3.12	3.12	–	–	–	–	–	–	–	–	–	–	–
6′-amino- chlorobiphenyl methyl- vancomycin putrescine amide [TS0217]	12.5	1.56	1.56	1.56	6.25	3.12	3.12	–	–	–	–	–	–	–	–	–	–	–
6′-azido-3,4- dichloro- benzyloxyben zyl- vancomycin putrescine amide [TS0220]	3.1250	1.5625	1.5625	0.7813	1.5625	3.1250	–	–	–	–	–	–	–	–	–	–	–	–
CN[C@H](CC(C)C)C(=O)N[C@H]1C(=O)N[C@@H](CC(N)=O)C(=O)N[C@H]2C(=O)N[C@H]3C(=O)N[C@H](C(=O)N[C@H](C(=O)O)c4cc(O)cc(O)c4-c4cc3ccc4O)[C@H](O)c3ccc(c(Cl)c3)Oc3cc2cc(c3O[C@@H]2O[C@H](CO)[C@@H](O)[C@H](O)[C@H]2O[C@H]2C[C@](C)(N)[C@H](O)[C@H](C)O2)Oc2ccc(cc2Cl)[C@H]1O [EXT0002, vancomycin, reference compound]	> 25	1.56 to 3.12	1.56 (≈ 1.08 µM)	0.25 to 0.39	> 25	0.78 to 3.12	0.78 (≈ 0.538 µM)	–	–	–	–	–	–	–	–	–	–	–
CN[C@H](CC(C)C)C(=O)N[C@H]1C(=O)N[C@@H](CC(N)=O)C(=O)N[C@H]2C(=O)N[C@H]3C(=O)N[C@H](C(=O)N[C@@H](C(=O)NCCCCN)c4cc(O)cc(O)c4-c4cc3ccc4O)[C@H](O)c3ccc(c(Cl)c3)Oc3cc2cc(c3OC2OC(CO)C(O)C(O)C2OC2CC(C)(NCc3ccc(-c4ccc(Cl)cc4)cc3)C(O)C(C)O2)Oc2ccc(cc2Cl)[C@H]1O (stereo partly drawn) [TS0221, chlorobipheny lmethyl- vancomycin putrescine amide]	–	–	–	–	–	–	–	6.25 (≈ 3.63 µM)	1.56 (≈ 0.908 µM)	1.56 (≈ 0.908 µM)	0.25 (≈ 0.145 µM)	12.5 (≈ 7.27 µM)	0.781 (≈ 0.454 µM)	–	–	–	–	–
CN[C@H](CC(C)C)C(=O)N[C@H]1C(=O)N[C@@H](CC(N)=O)C(=O)N[C@H]2C(=O)NC3C(=O)N[C@H](C(=O)N[C@@H](C(=O)NCCCCN)c4cc(O)cc(O)c4-c4cc3ccc4O)[C@H](O)c3ccc(c(Cl)c3)Oc3cc2cc(c3OC2OC(CN=[N+]=[N-])C(O)C(O)C2OC2CC(C)(NCc3ccc(-c4ccc(Cl)cc4)cc3)C(O)C(C)O2)Oc2ccc(cc2Cl)[C@H]1O (stereo partly drawn) [TS0222]	–	–	–	–	–	–	–	3.12 (≈ 1.79 µM)	0.781 (≈ 0.448 µM)	1.56 (≈ 0.895 µM)	0.25 (≈ 0.143 µM)	3.12 (≈ 1.79 µM)	3.12 (≈ 1.79 µM)	–	–	–	–	–
CN[C@H](CC(C)C)C(=O)N[C@H]1C(=O)N[C@@H](CC(N)=O)C(=O)N[C@H]2C(=O)NC3C(=O)N[C@H](C(=O)N[C@@H](C(=O)NCCN)c4cc(O)cc(O)c4-c4cc3ccc4O)[C@H](O)c3ccc(c(Cl)c3)Oc3cc2cc(c3OC2OC(CN=[N+]=[N-])C(O)C(O)C2OC2CC(C)(NCc3ccc(OCc4ccc(Cl)c(Cl)c4)cc3)C(O)C(C)O2)Oc2ccc(cc2Cl)[C@H]1O (stereo partly drawn) [TS0256, 6′-azido-3,4-dichlorobenzyl oxylbenzyl-vancomycin 2-aminoethyl amide]	–	–	–	–	–	–	–	–	–	–	–	–	1.56 (≈ 0.876 µM)	6.25 (≈ 3.51 µM)	3.12 (≈ 1.75 µM)	1.56 (≈ 0.876 µM)	0.39 (≈ 0.219 µM)	1.56 (≈ 0.876 µM)
CN[C@H](CC(C)C)C(=O)N[C@H]1C(=O)N[C@@H](CC(N)=O)C(=O)N[C@H]2C(=O)NC3C(=O)N[C@H](C(=O)N[C@@H](C(=O)NCCN)c4cc(O)cc(O)c4-c4cc3ccc4O)[C@H](O)c3ccc(c(Cl)c3)Oc3cc2cc(c3OC2OC(CN)C(O)C(O)C2OC2CC(C)(NCc3ccc(OCc4ccc(Cl)c(Cl)c4)cc3)C(O)C(C)O2)Oc2ccc(cc2Cl)[C@H]1O (stereo partly drawn) [TS0258, 6′-amino-3,4-dichlorobenzyl oxylbenzyl-vancomycin 2-aminoethyl amide]	–	–	–	–	–	–	–	–	–	–	–	–	12.5 (≈ 7.12 µM)	25 (≈ 14.2 µM)	12.5 (≈ 7.12 µM)	25 (≈ 14.2 µM)	3.12 (≈ 1.78 µM)	25 (≈ 14.2 µM)
N-methyl, N- chlorobiphenyl methyl-D- leucyl-6′-azido- chlorobiphenyl methyl vancomycin putrescine amide [TS0259]	6.25	3.12	3.12	1.56	12.5	1.56	–	–	–	–	–	–	–	–	–	–	–	–
